Experimental data as given in US10759813B2, “Neprilysin inhibitors” (THERAVANCE BIOPHARMA R&D IP, LLC, priority 2010, dated 2020).

Target: human neprilysin (EC 3.4.24.11; NEP) (Homo sapiens (Human), UniProt P08473)
Experiment: In vitro enzyme inhibition assay at human NEP (fluorogenic peptide substrate)
Format: biochemical
Settings: pKi values at human NEP, recombinant human NEP
In short: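 Recombinant human NEP preincubated 30 min at 37 °C with compound (10 μM down to pM), then 10 μM Mca-D-Arg-Arg-Leu-Dap-(Dnp)-OH in 50 mM HEPES pH 7.5, 100 mM NaCl, 0.01% Tween-20, 10 μM ZnSO4. Stopped after 20 min with acetic acid; fluorescence Ex320/Em405; Ki by nonlinear fit, reported as pKi.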

Sequence of human neprilysin (EC 3.4.24.11; NEP) (P08473 52-750): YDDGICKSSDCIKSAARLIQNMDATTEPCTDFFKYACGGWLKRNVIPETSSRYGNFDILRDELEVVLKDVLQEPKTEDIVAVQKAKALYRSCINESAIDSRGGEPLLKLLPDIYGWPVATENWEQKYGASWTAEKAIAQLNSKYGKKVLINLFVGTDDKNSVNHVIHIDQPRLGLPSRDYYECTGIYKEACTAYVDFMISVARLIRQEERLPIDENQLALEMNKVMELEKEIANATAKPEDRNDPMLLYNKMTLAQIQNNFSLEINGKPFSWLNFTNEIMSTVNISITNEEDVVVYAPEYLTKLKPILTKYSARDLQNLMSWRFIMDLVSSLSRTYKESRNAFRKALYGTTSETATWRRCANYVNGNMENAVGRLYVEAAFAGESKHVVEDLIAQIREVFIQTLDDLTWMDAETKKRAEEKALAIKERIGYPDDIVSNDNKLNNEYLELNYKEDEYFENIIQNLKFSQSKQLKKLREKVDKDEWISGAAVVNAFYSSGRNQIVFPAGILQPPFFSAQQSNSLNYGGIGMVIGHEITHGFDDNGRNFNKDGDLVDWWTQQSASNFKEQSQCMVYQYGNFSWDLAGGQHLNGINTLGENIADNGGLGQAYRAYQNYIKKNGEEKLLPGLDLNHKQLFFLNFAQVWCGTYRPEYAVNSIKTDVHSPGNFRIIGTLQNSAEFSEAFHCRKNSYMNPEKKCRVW

Question: Which pKi does the source give for `O=C(N[C@H](Cc1ccc(-c2ccccc2)cc1)C[C@@H](O)C(=O)O)c1cc(C2CCCCC2)no1` [Example 12-7, (2R,4R)-5-Biphenyl-4-yl-4-[(3-cyclohexyl-isoxazole-5-carbonyl)-amino]-2-hydroxy-pentanoic acid] here?
Answer: ≥9.0

Question: `CC(O)c1cc(C(=O)N[C@H](Cc2ccc(-c3cccc(Cl)c3)cc2)C[C@@H](O)C(=O)O)[nH]n1` (stereo partly drawn) [Example 18-32, (2R,4R)-5-(3′-Chloro-biphenyl-4-yl)-2-hydroxy-4-{[5-(1-hydroxy-ethyl)-2H-pyrazole-3-carbonyl]-amino}-pentanoic acid] was tested. Which pKi did it give?
Answer: ≥9.0

Question: With `CC(=O)OCOn1nncc1C(=O)N[C@H](Cc1ccc(-c2cc(Cl)ccc2F)cc1)C[C@@H](O)C(=O)O` [Example 19-18, (2R,4R)-4-[(3-Acetoxymethoxy-3H-[1,2,3]triazole-4-carbonyl)-amino]-5-(5′-chloro-2′-fluoro-biphenyl-4-yl)-2-hydroxy-pentanoic acid] as the compound, how does the pKi read?
Answer: ≥9.0

Question: `COc1cc(C(=O)N[C@H](Cc2ccc(-c3cccc(Cl)c3)cc2)C[C@@H](O)C(=O)O)on1` [Example 18-8, (2R,4R)-5-(3′-Chlorobiphenyl-4-yl)-2-hydroxy-4-[(3-methoxy-isoxazole-5-carbonyl)-amino]-pentanoic acid] was tested. Which pKi did it give?
Answer: ≥9.0

Question: For `CNC(=O)c1cc(C(=O)N[C@H](Cc2ccc(-c3ccccc3)cc2)C[C@@H](O)C(=O)O)[nH]n1` [Example 15-60, (2R,4R)-5-Biphenyl-4-yl-2-hydroxy-4-[(5-methylcarbamoyl-2H-pyrazole-3-carbonyl)-amino]pentanoic acid], which pKi is on record?
Answer: ≥9.0

Question: How did the pKi turn out when `O=C(N[C@H](Cc1ccc(-c2cccc(Cl)c2)cc1)C[C@@H](O)C(=O)O)c1cc(NC(=O)c2ccccc2Cl)n[nH]1` [Example 18-27, (2R,4R)-4-{[5-(2-Chlorobenzoylamino)-2H-pyrazole-3-carbonyl]-amino}-5-(3′-chlorobiphenyl-4-yl)-2-hydroxy-pentanoic acid] was run?
Answer: ≥9.0

Question: For `CC(C)(c1ccc(-c2ccccc2)cc1)[C@H](C[C@@H](O)C(=O)O)NC(=O)c1cc(O)no1` [Example 25-3, (2R,4S)-5-Biphenyl-4-yl-2-hydroxy-4-[(3-hydroxy-isoxazole-5-carbonyl)-amino]-5-methyl-hexanoic acid], which pKi is on record?
Answer: ≥9.0

Question: With `O=C(N[C@H](Cc1ccc(-c2cccc(Cl)c2)cc1)C[C@@H](O)C(=O)O)c1cc(-c2ccccn2)n[nH]1` [Example 18-23, (2R,4R)-5-(3′-Chlorobiphenyl-4-yl)-2-hydroxy-4-[(5-pyridin-2-yl-2H-pyrazole-3-carbonyl)-amino]-pentanoic acid] as the compound, how does the pKi read?
Answer: ≥9.0

Question: `CC(C)(O)c1cc(C(=O)N[C@H](Cc2ccc(-c3cccc(Cl)c3)cc2)C[C@@H](O)C(=O)O)on1` [Example 18-13, (2R,4R)-5-(3′-Chloro-biphenyl-4-yl)-2-hydroxy-4-{[3-(1-hydroxy-1-methyl-ethyl)-isoxazole-5-carbonyl]-amino}-pentanoic acid] was tested. Which pKi did it give?
Answer: ≥9.0

Question: With `O=C(N[C@H](Cc1ccc(-c2ccccc2)cc1)C[C@@H](O)C(=O)O)c1n[nH]c(O)n1` [Example 10-9, (2R,4R)-5-Biphenyl-4-yl-2-hydroxy-4-[(5-hydroxy-1H-[1,2,4]triazole-3-carbonyl)amino]-pentanoic acid] as the compound, how does the Ki read?
Answer: 0.00126 to 0.01 µM

Question: With `COc1ccc(F)cc1-c1cc(C(=O)N[C@H](Cc2ccc(-c3ccccc3)cc2)C[C@@H](O)C(=O)O)[nH]n1` [Example 15-86, (2R,4R)-5-Biphenyl-4-yl-4-{[5-(5-fluoro-2-methoxy-phenyl)-2H-pyrazole-3-carbonyl]-amino}-2-hydroxy-pentanoic acid] as the compound, how does the pKi read?
Answer: ≥9.0

Question: Which Ki does the source give for `O=C(N[C@H](Cc1ccc(-c2ccccc2)cc1Cl)C[C@@H](O)C(=O)O)c1cc(-c2ccccn2)n[nH]1` [Example 20-9, (2R,4R)-5-(3-Chloro-biphenyl-4-yl)-2-hydroxy-4-[(5-pyridin-2-yl-2H-pyrazole-3-carbonyl)-amino]-pentanoic acid] here?
Answer: 0.00126 to 0.01 µM

Question: Which pKi does the source give for `O=C(N[C@H](Cc1ccc(-c2ccccc2)cc1)C[C@@H](O)C(=O)O)c1cc(C(=O)N2CCC(O)CC2)n[nH]1` [Example 15-48, (2R,4R)-5-Biphenyl-4-yl-2-hydroxy-4-{[5-(4-hydroxypiperidine-1-carbonyl)-2H-pyrazole-3-carbonyl]-amino}-pentanoic acid] here?
Answer: ≥9.0

Question: Which Ki does the source give for `CN(C)CCNC(=O)c1cc(C(=O)N[C@H](Cc2ccc(-c3ccccc3)cc2)CC(O)C(=O)O)[nH]n1` (stereo partly drawn) [Example 15-71, (R)-5-Biphenyl-4-yl-4-{[5-(2-dimethylamino-ethylcarbamoyl)-2H-pyrazole-3-carbonyl]-amino}-2-hydroxy-pentanoic acid] here?
Answer: 0.00126 to 0.01 µM

Question: With `O=C(N[C@H](Cc1ccc(-c2ccccc2)cc1)CC(O)C(=O)O)c1cc(C(=O)O)n(Cc2ccc(Cl)c(SC(F)(F)F)c2)n1` (stereo partly drawn) [Example 15-6, 5-((R)-1-Biphenyl-4-ylmethyl-3-carboxy-3-hydroxypropylcarbamoyl)-2-(4-chloro-3-trifluoromethylsulfanyl-benzyl)-2H-pyrazole-3-carboxylic acid] as the compound, how does the Ki read?
Answer: 0.0126 to 0.1 µM

Question: `O=C(N[C@H](Cc1ccc(-c2ccccc2)cc1)CC(O)C(=O)O)c1cc(C(=O)O)n(Cc2ccc(F)c(Cl)c2)n1` (stereo partly drawn) [Example 15-14, 5-((R)-1-Biphenyl-4-ylmethyl-3-carboxy-3-hydroxy-propylcarbamoyl)-2-(3-chloro-4-fluorobenzyl)-2H-pyrazole-3-carboxylic acid] was tested. Which Ki did it give?
Answer: 0.00126 to 0.01 µM

Question: For `O=C(N[C@H](Cc1ccc(-c2ccccc2)cc1)C[C@@H](O)C(=O)O)c1cnn[nH]1` [Example 10-2, (2R,4R)-5-Biphenyl-4-yl-2-hydroxy-4-[(3H-[1,2,3]triazole-4-carbonyl)amino]pentanoic acid], which Ki is on record?
Answer: 0.00126 to 0.01 µM

Question: For `O=C(N[C@H](Cc1ccc(-c2ccccc2)cc1)C[C@@H](O)C(=O)O)c1cc(-c2ccccn2)n[nH]1` [Example 15-102, (2R,4R)-5-Biphenyl-4-yl-2-hydroxy-4-[(5-pyridin-2-yl-2H-pyrazole-3-carbonyl)-amino]-pentanoic acid], which Ki is on record?
Answer: ≤ 0.001 µM

Question: Which pKi does the source give for `O=C(N[C@H](Cc1ccc(-c2ccccc2)cc1)C[C@@H](O)C(=O)O)c1cc(-c2ccc(Cl)s2)n[nH]1` [Example 15-90, (2R,4R)-5-Biphenyl-4-yl-4-{[5-(5-chlorothiophen-2-yl)-2H-pyrazole-3-carbonyl]-amino}-2-hydroxy-pentanoic acid] here?
Answer: ≥9.0

Question: For `O=C(N[C@H](Cc1ccc(-c2ccccc2)cc1)CC(O)C(=O)O)c1cc(-c2ccccc2C(F)(F)F)n[nH]1` (stereo partly drawn) [Example 15-81, (R)-5-Biphenyl-4-yl-2-hydroxy-4-{[5-(2-trifluoromethyl-phenyl)-2H-pyrazole-3-carbonyl]-amino}-pentanoic acid], which Ki is on record?
Answer: 0.0126 to 0.1 µM

Question: For `O=C(N[C@H](Cc1ccc(-c2cccc(Cl)c2)cc1Cl)C[C@@H](O)C(=O)O)c1cnn[nH]1` [Example 21-1, (2R,4R)-5-(3,3′-Dichlorobiphenyl-4-yl)-2-hydroxy-4-[(3H-[1,2,3]triazole-4-carbonyl)-amino]-pentanoic acid], which pKi is on record?
Answer: ≥9.0

Question: How did the Ki turn out when `O=C(N[C@H](Cc1ccc(-c2ccccc2)cc1)CC(O)C(=O)O)c1cc(-c2ccccc2Cl)[nH]n1` (stereo partly drawn) [Example 15-24, (R)-5-Biphenyl-4-yl-4-{[5-(2-chlorophenyl)-1H-pyrazole-3-carbonyl]amino}-2-hydroxy-pentanoic acid] was run?
Answer: 0.00126 to 0.01 µM
